# Laboratory results as given in patent US11766414B2, “Compositions, delivery systems, and methods useful in tumor therapy” (Indi Molecular, Inc., priority 2020, dated 2023).
# Read-outs that look alike come from different tables or passages of the source. Starred links: 1 amine or outer side, 2 acyl side, 3 side chain; linkers in the order of their positions; H or OH if unused. Positions of bridges follow the written chain, without caps; N, C: chain ends. Non-standard residues stand in square brackets, D forms with d. Residues, ends and D or L forms follow the SMILES beside them. Triazole bridges read from a SMILES are 1,4-linked. *: point of attachment. DOTA = O=C(O)CN1CCN(CC(=O)O)CCN(CC(=O)*)CCN(CC(=O)O)CC1; Pteroyl = Nc1nc2ncc(CNc3ccc(C(=O)*)cc3)nc2c(=O)[nH]1; Biotin = O=C1N[C@H]2[C@H](CS[C@H]2CCCCC(=O)*)N1; PEG10 = NCCOCCOCCOCCOCCOCCOCCOCCOCCOCCOCCC(=O)O; Butanoyl(4-(4-MePh)) = Cc1ccc(CCCC(=O)*)cc1; Lys(N3) = [N-]=[N+]=NCCCC[C@H](N)C(=O)O; γGlu = O=C(O)[C@H](CCC(=O)[*:2])N[*:1]; PEG7 = NCCOCCOCCOCCOCCOCCOCCOCCC(=O)O; AEEEA = NCCOCCOCCOCC(=O)O; Pra = C#CC[C@H](N)C(=O)O; X1 = NOCC(=O)*
# Experiments:
# [1] = molecular target: FOLR1 (Homo sapiens, UniProt P15328); assay: ELISA assay of FOLR1 binding
# Chain of FOLR1 (P15328 25-234): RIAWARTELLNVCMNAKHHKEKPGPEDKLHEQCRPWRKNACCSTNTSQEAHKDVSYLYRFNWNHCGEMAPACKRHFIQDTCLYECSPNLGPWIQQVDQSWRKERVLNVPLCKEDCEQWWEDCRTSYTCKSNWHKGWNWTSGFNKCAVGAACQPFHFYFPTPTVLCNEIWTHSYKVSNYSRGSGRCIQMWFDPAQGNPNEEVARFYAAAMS
# Excerpt: FIG. 5 is a diagram of ELISA assay of FOLR1 binding of heterobiligands.
# [2] = molecular target: human recombinant NEP (Homo sapiens, UniProt P08473); assay: NEP enzymatic cleavage assay (MALDI, HPLC); format: biochemical; details: for NEP-mediated cleavage: MALDI
# Chain of human recombinant NEP (P08473 whole entry): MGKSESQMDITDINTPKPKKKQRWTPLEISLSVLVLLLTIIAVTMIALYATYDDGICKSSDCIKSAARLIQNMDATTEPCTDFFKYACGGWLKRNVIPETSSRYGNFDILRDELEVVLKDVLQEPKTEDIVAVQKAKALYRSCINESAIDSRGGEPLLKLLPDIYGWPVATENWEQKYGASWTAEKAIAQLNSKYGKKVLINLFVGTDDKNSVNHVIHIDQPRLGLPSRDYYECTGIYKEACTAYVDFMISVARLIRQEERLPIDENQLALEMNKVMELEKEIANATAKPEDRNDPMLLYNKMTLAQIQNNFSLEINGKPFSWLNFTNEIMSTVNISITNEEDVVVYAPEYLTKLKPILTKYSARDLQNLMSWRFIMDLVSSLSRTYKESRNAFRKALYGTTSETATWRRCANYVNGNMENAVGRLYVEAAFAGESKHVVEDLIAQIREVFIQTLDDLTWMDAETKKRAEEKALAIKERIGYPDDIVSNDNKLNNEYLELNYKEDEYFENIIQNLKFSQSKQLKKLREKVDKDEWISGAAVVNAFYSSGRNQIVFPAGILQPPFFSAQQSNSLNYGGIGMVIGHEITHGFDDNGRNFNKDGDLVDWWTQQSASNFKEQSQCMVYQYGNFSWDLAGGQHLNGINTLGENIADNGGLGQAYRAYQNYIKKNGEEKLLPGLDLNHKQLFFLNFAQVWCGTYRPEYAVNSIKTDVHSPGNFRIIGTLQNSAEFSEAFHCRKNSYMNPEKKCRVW
# Protocol: In order to test the susceptibility of GFK and MVK linkers to NEP-mediated cleavage, the peptide (Folate-hshta-Lys(MPBA)-Gly-Phe-Lys(DOTA) (SEQ ID NO:6)) was incubated with human recombinant NEP and analyzed the solution for the presence of cleaved adducts. MALDI was utilized to monitor the cleavage of a PCC heterobiligand that contains a NEP protease recognizable sequence (G-F-K). The PCC concentration was constant and the NEP concentration was titrated down from 10 nM to 1 nM, 0.1 nM, 0.01 nM, and no NEP. The NEP-mediated cleaved adduct was identified by mass. 10 μM PCC containing the GFK linker was combined with varying amounts of NEP. […] Below 0.1 nM no cleavage was observed. • Folate-hshta-Lys(MPBA)-Gly-Phe-Lys(DOTA) (SEQ ID NO:6) • Molecular weight 2231.42
# The NEP-mediated cleavage was also monitored by HPLC. In agreement with the MALDI spectra, the HPLC chromatograms show depletion of the parent brush-border heterobiligand (retention time 17.1 minutes), dose-dependent on the amount of NEP spiked into the sample (10 nM, 1 nM, 0.1 nM, 0.01 nM, and no NEP). An appearance of a new peak (retention time 16.5 minutes) in concert with the depletion of the starting material is presumed to be the cleaved folate-containing peptide.
# In order to test the specificity of NEP, a non-cleavable linker (PEG3) was also assayed.
# To reduce the radioactive dose to the kidney, Indi ^177Lu-7327 was constructed to incorporate a GFK linker that is susceptible to cleavage by enzymes found predominately in the kidney's brush border. These enzymes cleave off the radionuclide-chelator complex, which is quickly eliminated by the kidney for excretion in the urine. The zinc metalloprotease neprilysin (NEP) is expressed with high abundance in the kidney. […] To confirm NEP-mediated cleavage of the GFK linker in Indi 7327, the peptide was incubated with recombinant human NEP at 37° C. for 1 h and analyzed by matrix-assisted laser desorption/ionization mass spectrometry (MALDI-MS) for the evolution of cleaved adducts (FIG. 42). […] The expected cleaved adduct (mass: 1283.16 m/z) appears in the samples containing 10, 1.0, and 0.1 nM NEP. […] Below 0.1 nM NEP, no cleavage was observed. In addition to confirming the selectivity of NEP for the GFK linker, it is also important to note that the remaining portions of the Indi 7327 were impervious to the enzyme.
compound,measurement,setting,value
C[C@H](O)[C@H]1NC(=O)[C@@H](Cc2ccc(O)cc2)NC(=O)[C@@H](CCCNC(=N)N)NC(=O)[C@@H](CCC(=O)O)NC(=O)[C@@H](CC(=O)O)NC(=O)[C@@H](NC(=O)[C@H](Cc2cn(CCOCCOCCOCCNC(=O)CC[C@H](NC(=O)c3ccc(NCc4cnc5nc(N)[nH]c(=O)c5n4)cc3)C(=O)O)nn2)NC(=O)CCOCCOCCOCCOCCOCCOCCOCCOCCOCCOCCNC(=O)CCOCCOCCOCCOCCOCCOCCOCCOCCOCCOCCNC(=O)CCCC[C@@H]2SC[C@@H]3NC(=O)N[C@@H]32)Cc2cn(nn2)CCCC[C@@H](C(N)=O)NC1=O [Pra(Az4-PEG3-folate)-deryt],EC50,"[1]; read-out: EC50 (ELISA, FOLR1)",0.27 nM
"Cc1ccc(CCCC(=O)NCCCC[C@H](NC(=O)[C@@H]2CCCCn3cc(nn3)C[C@H](NC(=O)CC[C@H](NC(=O)c3ccc(NCc4cnc5nc(N)[nH]c(=O)c5n4)cc3)C(=O)O)C(=O)N[C@H](Cc3cnc[nH]3)C(=O)N[C@H](CO)C(=O)N[C@H](Cc3cnc[nH]3)C(=O)N[C@H]([C@H](C)O)C(=O)N[C@H](C)C(=O)N2)C(=O)NCC(=O)N[C@@H](Cc2ccccc2)C(=O)N[C@@H](CCCCNC(=O)CON)C(=O)O)cc1 [compound 3304, Fol-hshta-Lys(4-MPBA)-Gly-Phe-Lys(AO)] ({Pteroyl-γGlu}-[Pra][dH][dS][dH][dT][dA][Lys(N3)]K(Butanoyl(4-(4-MePh)))GFK(X1)-OH; triazole 1-7)",in vitro Assay Data (NEP assay),"[2]; Table 7, AO-containing constructs",Cleavage of —G—F—K-
C[C@H](O)[C@H]1NC(=O)[C@@H](Cc2c[nH]cn2)NC(=O)[C@@H](CO)NC(=O)[C@@H](Cc2c[nH]cn2)NC(=O)[C@@H](NC(=O)CCOCCOCCOCCOCCOCCOCCOCCNC(=O)CC[C@H](NC(=O)c2ccc(NCc3cnc4nc(N)[nH]c(=O)c4n3)cc2)C(=O)O)Cc2cn(nn2)CCCC[C@@H](C(=O)NCCOCCOCCOCCOCCOCCOCCOCCOCCOCCOCCC(=O)NCCOCCOCCOCCOCCOCCOCCOCCOCCOCCOCCC(=O)N[C@@H](CCCCNC(=O)CCCC[C@@H]2SC[C@@H]3NC(=O)N[C@@H]32)C(N)=O)NC(=O)[C@@H](C)NC1=O [Folate-PEG7-hshta] ({Pteroyl-γGlu-PEG7}-[Pra][dH][dS][dH][dT][dA][Lys(N3)][PEG10][PEG10]K(Biotin)-NH2; triazole 1-7),EC50,"[1]; read-out: EC50 (ELISA, FOLR1)",1 nM
"C[C@H](O)[C@H]1NC(=O)[C@@H](Cc2c[nH]cn2)NC(=O)[C@@H](CO)NC(=O)[C@@H](Cc2c[nH]cn2)NC(=O)[C@@H](NC(=O)CC[C@H](NC(=O)c2ccc(NCc3cnc4nc(N)[nH]c(=O)c4n3)cc2)C(=O)O)Cc2cn(nn2)CCCC[C@@H](C(=O)NCC(=O)N[C@@H](Cc2ccccc2)C(=O)N[C@@H](CCCCNC(=O)CN2CCN(CC(=O)O)CCN(CC(=O)O)CCN(CC(=O)O)CC2)C(=O)O)NC(=O)[C@@H](C)NC1=O [compound 7327, folate-hshta-Gly-Phe-Lys(DOTA)] ({Pteroyl-γGlu}-[Pra][dH][dS][dH][dT][dA][Lys(N3)]GFK(DOTA)-OH; triazole 1-7)",site of neprilysin cleavage,[2],cleaved at the amide bond between Gly and Phe
same,NEP-mediated cleavage,[2]; 1 nM and 0.1 nM NEP,partial cleavage
same,NEP-mediated cleavage,[2]; 10 nM NEP,complete consumption of the peptide
same,in vitro Assay Data (NEP assay),[2]; Table 2,Cleavage of -G-F-K-
same,NEP-mediated cleavage,[2]; below 0.1 nM NEP,no cleavage
C[C@H](O)[C@H]1NC(=O)[C@@H](Cc2ccc(O)cc2)NC(=O)[C@@H](CCCNC(=N)N)NC(=O)[C@@H](CCC(=O)O)NC(=O)[C@@H](CC(=O)O)NC(=O)[C@@H](NC(=O)COCCOCCOCCNC(=O)CCCC[C@@H]2SC[C@@H]3NC(=O)N[C@@H]32)Cc2cn(nn2)CCCC[C@@H](C(N)=O)NC1=O [deryt] ({Biotin-AEEEA}-[Pra][dD][dE][dR][dY][dT][Lys(N3)]-NH2; triazole 1-7),EC50,"[1]; PCC alone, read-out: EC50",10000 nM
